Results on 6 substances are retold here after patent US5770688A, “Method and composition for the treatment of mammalian HIV infection” (GSF-Forschungszentrum fur Umwelt und Gesundheit GmbH, priority 1989, dated 1998).

One experiment relates to HIV. Nature of the experiment: HIV release from chronically infected cells (Biomek 1000). It is filed as cell-based. The following applies: for inhibition of viral cell (HIV) release from infected cells, in words: FIGS. 6-19; for overall effect, in words: FIGS. 20-29. The source says:
(§1) A series of experiments and which are illustrated graphically in FIGS. 6 through 34, respectively, were designed to detect two extremes. In particular the tests were designed to detect the inhibition of viral release and/or the release of virus which has a reduced ability to infect other cells. This reduced ability to infect other cells is represented, for example, by glycosylation inhibitors, the direct effect on virus release is represented by acylation inhibitors, RT inhibitors and melittin (Seq. ID NO:1). The most important feature of this experimental design, however, is to detect the toxicity of melittin. The present experiments were carried out on both the astrocytoma cell line LC5-HIV (cloned infected cells) and T-lymphocytoma cell line KE37-1/IIIβ (cloned infected cells with HTLV-IIIβ). In both cases the results were essentially identical.
(§2) In the present series of experiments HIV release was tested by a fully automated laboratory robot system and which is manufactured by Beckman Instruments as the Biomek 1000. This system performed the following steps. First, chronically infected cells (cloned) are plated in microtiter plates and grown for a period of seven days. They are then challenged by melittin (Seq. ID NO:1) during this period either for the final day or throughout the period as shown in the figures. The number of living cells are quantified by MTT, that is by a metabolic (dehydrogenase) test. The MTT test is automatically performed. The toxic effect is detected at the time of the experiment and not in a separate control experiment. Furthermore, the supernatant, and which contains released virus cells from the period of time which elapsed from the last wash, and which may vary from 24 hours to 7 days, is collected from the culture, and an aliquot is saved for virus quantification by employing antigen or viral enzyme reverse transcriptase (RT). Furthermore, an aliquot is added to a culture of uninfected cells in microtiter plates for subsequent measurement of the ability of the virus cells to reinfect these uninfected cells. In this regard, the number of infected cells is automatically quantified by an immunoperoxidase staining technique. The test results, as shown, are expressed in terms of toxicity of the melittin (MTT test); the release of HIV from the primary culture (RT test); and the ability of the released virus to infect previously uninfected cells.

Another experiment concerns Rausher leukemia virus. The following applies: 2 weeks.
The next experiment has as its system HIV-infected LC5 cells. Nature of the experiment: MTT toxicity/killing of HIV infected cells (Biomek 1000). It is filed as cell-based, human. On the procedure:
The KE37-1 (uninfected) and KE37-1/111β (infected) cell lines discussed below are commercially available from the Dr. Robert Gallows Laboratory of the NIH in the United States of America and grown in a medium of RPMI 1640 (GIBCO) and further supplemented with 10% fetal calf serum which contained approximately 100 units of penicillin, 100 μg streptomycin, and approximately 0.25 μg fungizone (Amphotericin B) per milliliter. The human mesenchymal cell lines LC5 and LC5-HIV, discussed below, are deposited with the Collection De L'Institut Pasteur of Paris, France on Mar. 9, 1989 and given the accession numbers I-842 and I-843, respectively. The LC5 and LC5-HIV cell lines were grown in a medium of RPMI 1640 and supplemented with 10% fetal calf serum.
as §1, §2

Experimental for Rausher leukemia virus: The size of the spleen is taken as a measure of the progress of the disease which eventually leads to the death of the infected animals.
The test of the antiviral effect of the melittin (Seq. ID NO:1) principle was carried out on Balb C mice (12 weeks old; all males). The animals were kept in numbers of 4 per cage. The animals were infected by Rausher leukemia virus (10^5 infectious particles (viruses) per animal in a volume of 0.2 ml) by intraperitoneal injection (ip) followed by subcutaneous injection of the test substance after 10 minutes. The animals were divided into two groups referred to as controls (receiving a sham injection of saline) or test animals (receiving the melittin analogue).
The peptide was dissolved as 100 μg/ml and the controls as well as the test animals were injected with the same volume subcutaneously (0.1 ml) of PBS or PBS+test substance respectively. The injection was carried out 10 minutes after injection of the infectious virus. After 2 days the animals received a new injection of melittin analogue (10 μg/mg body weight) or PBS as a subcutaneous injection of 0.100 ml. After 4 days from the first injection a third injection was performed using 20 μg/mg body weight of melittin analogue.

For “Gly-Ile-Gly-Ala-Val-Leu-Lys-Val-Leu-Thr-Thr-Gly-Leu-Pro-Ala-Leu-Ile-Ser-Trp-Ile-Gly-Gly-Gly-Gly-Gly-Gly [melittin (1-20)-6-(Gly)-Amide]”, the “inhibition of viral cell (HIV) release from infected cells, in words” value in the experiment on HIV was “inhibited HIV release”. Moreover, in the experiment with Rausher leukemia virus, the “animals with spleens greater than 150 mg but lower than 170 mg (borderline)” value is on record as 25%, the “infected animals that do not develop disease” value worked out at 75%, the “number of animals with pathological spleen” value was “one” and the “spleen weight of the rest of the test group” value is 100 to 150 mg. Besides, the “inhibition of growth / survival of infected cells, in words” value in the experiment on HIV-infected LC5 cells is “inhibited the growth of infected cells”.

As to “MHC: MHC (Seq. ID NO:10), (MAJOR histocompatibility complex sequence) (VAAKANRVADEIRHKREKLE) [reference compound]”, in the experiment with HIV, the “overall effect, in words” value is “do not have any readily apparent effects”.

For the substance “Melittin COOH: Melittin COOH was tested and appeared to be less efficient than the melittin amid”, the “efficiency compared with melittin amid” value with HIV is listed as “less efficient than the melittin amid”.

In the case of “control peptide: HOLST peptide (negative control); no apparent structural similarity to melittin (FAESGVDTPVFNSY) [reference compound]”, the “overall effect, in words” value in the experiment with HIV is “without effect”.

Turning to mastoparan [reference compound], the “overall effect, in words” value in the experiment with HIV was “do not have any readily apparent effects”.

Consider “melittin 1-20: melittin 1-20 (Seq. ID NO:7) lacks the cell binding part of the molecule”, for which the “inhibition of viral cell (HIV) release from infected cells, in words” value in the experiment with HIV was “inhibited HIV release as did the natural melittin and melittin (1-20)-6-(Gly)-Amide”. In addition, the “inhibition of growth / survival of infected cells, in words” value in the experiment on HIV-infected LC5 cells is reported as “inhibited the growth of infected cells”.
